Assay results reported in patent publication US20160271149A1, “[…] COMPOUNDS THAT […] PROTEIN ARGININE […] ACTIVITY FOR REDUCING TUMOR CELL PROLIFERATION” (Epinova Therapeutics Corp., priority 2015, published 2016).
Several values for one entry are separate records, joined by “and”; a condition that tells them apart may be missing. Equal entries are not always repeated. Structures can show the parent of a compound that is named as a salt. Blank lines part the entries; values can stand above or below the molecule they belong to.

How the values were obtained:
[1] = target: PRMT1 (Homo sapiens, UniProt Q99873); assay: Methyltransferase activity screen, PRMT1, substrate Histone H4; conditions: single-dose mode, duplicate (Data 1, Data 2), 1 μM SAM, 100 μM
Protocol: (§1) A 10 mM DMSO stock solution of each test compound was prepared.
(§2) Compounds were tested in a single-dose mode, in duplicate at the following concentrations.
(§3) Reactions were carried out at 1 μM SAM. The no inhibitor control was set as 100% activity).

[2] = target: PRMT6 (Homo sapiens, UniProt Q96LA8); assay: Methyltransferase activity screen, PRMT6, substrate Histone H3; conditions: for % Enzyme Activity (relative to DMSO controls): PRMT6, substrate Histone H3, single-dose mode, duplicate (Data 1, Data 2), 1 μM SAM, 100 μM
Protocol: as §1, §2, §3

[3] = target: PRMT5 (Homo sapiens, UniProt O14744); assay: Methyltransferase activity screen, PRMT5, substrate Histone H2A; conditions: for % Enzyme Activity (relative to DMSO controls): PRMT5, substrate Histone H2A, single-dose mode, duplicate (Data 1, Data 2), 1 μM SAM, 100 μM; for inhibition of PRMT5: at a concentration of 100 μM
Protocol: as §1, §2, §3

[4] = target: PRMT5/MEP50 (Homo sapiens, UniProt O14744); assay: Methyltransferase activity screen and profiling, PRMT5/MEP50, substrate Histone H2A; conditions: for % Enzyme Activity (relative to DMSO controls): PRMT5/MEP50, substrate Histone H2A, single-dose mode, duplicate (Data 1, Data 2), 1 μM SAM, 100 μM; for % Activity / Raw data: PRMT5/MEP50 profiling
Protocol: as §1, §2, §3

[5] = target: T1, human PPARα (Homo sapiens, UniProt Q07869); conditions: at 1 μM; COS-1 cells, human PPARα and RXRα; cited from earlier work
T1 sequence (Q07869 1-468): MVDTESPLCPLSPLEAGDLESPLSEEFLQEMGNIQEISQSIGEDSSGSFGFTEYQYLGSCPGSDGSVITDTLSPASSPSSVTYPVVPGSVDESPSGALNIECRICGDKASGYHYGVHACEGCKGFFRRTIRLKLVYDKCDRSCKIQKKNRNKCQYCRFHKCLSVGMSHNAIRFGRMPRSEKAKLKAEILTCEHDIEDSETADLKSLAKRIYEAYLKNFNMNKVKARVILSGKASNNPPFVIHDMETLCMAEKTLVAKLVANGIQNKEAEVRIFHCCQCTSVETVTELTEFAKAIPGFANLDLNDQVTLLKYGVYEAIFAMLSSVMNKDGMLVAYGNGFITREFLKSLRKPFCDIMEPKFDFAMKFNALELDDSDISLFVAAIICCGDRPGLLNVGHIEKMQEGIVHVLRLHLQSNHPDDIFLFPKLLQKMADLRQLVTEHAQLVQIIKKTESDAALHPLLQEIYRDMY
T1 sequence (P19793 1-462 partner): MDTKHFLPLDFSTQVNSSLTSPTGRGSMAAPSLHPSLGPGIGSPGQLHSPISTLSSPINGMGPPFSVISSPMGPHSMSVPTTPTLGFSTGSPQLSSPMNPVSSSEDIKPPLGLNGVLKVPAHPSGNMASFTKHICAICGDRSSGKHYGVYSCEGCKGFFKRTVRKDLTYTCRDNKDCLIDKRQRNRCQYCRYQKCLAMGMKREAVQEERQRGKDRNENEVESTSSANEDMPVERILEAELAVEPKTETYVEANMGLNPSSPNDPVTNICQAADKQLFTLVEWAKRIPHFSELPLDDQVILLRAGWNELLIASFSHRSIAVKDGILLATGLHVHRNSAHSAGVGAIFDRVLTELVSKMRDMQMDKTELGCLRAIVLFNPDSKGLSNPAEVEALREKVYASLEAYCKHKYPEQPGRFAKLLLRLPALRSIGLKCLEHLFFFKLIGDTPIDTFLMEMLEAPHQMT

[6] = target: T2, TGR5 (Homo sapiens, UniProt Q8TDU6); conditions: cited from earlier work
T2 sequence (Q8TDU6 1-330): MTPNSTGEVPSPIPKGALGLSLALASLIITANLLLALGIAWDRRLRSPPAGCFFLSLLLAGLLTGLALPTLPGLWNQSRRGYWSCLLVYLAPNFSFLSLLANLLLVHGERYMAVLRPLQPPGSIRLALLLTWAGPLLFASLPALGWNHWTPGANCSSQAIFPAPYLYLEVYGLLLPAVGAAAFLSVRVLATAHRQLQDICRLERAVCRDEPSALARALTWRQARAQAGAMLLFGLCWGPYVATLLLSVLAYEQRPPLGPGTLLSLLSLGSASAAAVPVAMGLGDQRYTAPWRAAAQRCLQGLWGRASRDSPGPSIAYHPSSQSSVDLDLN

Sequence of PRMT6 (Q96LA8 whole entry): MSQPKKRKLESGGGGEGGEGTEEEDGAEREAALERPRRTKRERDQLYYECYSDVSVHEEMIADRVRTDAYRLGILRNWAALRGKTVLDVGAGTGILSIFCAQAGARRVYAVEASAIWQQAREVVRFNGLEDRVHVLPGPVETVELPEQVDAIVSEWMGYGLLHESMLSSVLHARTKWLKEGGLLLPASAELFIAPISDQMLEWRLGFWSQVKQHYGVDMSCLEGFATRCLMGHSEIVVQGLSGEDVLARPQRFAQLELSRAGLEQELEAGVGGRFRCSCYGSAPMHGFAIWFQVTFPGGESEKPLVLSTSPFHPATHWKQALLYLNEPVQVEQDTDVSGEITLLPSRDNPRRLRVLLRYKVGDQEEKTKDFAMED
Sequence of PRMT5/MEP50 (O14744 whole entry): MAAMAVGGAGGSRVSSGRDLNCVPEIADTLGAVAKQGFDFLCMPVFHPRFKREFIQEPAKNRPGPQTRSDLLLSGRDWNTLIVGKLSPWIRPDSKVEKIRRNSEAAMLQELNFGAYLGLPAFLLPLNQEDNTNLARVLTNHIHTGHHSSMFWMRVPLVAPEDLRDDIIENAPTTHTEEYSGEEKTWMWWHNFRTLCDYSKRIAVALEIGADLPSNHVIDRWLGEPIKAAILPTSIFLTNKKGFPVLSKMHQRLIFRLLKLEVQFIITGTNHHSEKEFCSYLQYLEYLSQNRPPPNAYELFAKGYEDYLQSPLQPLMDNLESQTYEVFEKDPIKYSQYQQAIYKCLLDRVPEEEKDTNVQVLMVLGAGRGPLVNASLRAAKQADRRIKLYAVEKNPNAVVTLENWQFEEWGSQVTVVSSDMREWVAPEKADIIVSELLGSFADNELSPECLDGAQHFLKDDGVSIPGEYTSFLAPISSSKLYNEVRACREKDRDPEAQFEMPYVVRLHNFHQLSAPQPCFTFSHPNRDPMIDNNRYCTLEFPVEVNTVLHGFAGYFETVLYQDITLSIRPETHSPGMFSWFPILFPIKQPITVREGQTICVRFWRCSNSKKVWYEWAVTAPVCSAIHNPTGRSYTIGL
Sequence of PRMT5/MEP50 (Q9BQA1 whole entry partner): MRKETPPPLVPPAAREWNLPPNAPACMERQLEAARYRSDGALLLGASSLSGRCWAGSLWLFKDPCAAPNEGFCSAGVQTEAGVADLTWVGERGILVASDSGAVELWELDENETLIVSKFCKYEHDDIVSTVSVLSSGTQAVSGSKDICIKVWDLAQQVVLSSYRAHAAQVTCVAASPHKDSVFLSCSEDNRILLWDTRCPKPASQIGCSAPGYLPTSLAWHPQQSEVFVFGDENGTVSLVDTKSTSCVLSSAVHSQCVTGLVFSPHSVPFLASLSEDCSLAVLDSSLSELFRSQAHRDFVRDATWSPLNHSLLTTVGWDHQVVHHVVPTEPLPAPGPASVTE
Sequence of PRMT5 (O14744 whole entry): as the sequence (O14744 whole entry) above
Sequence of PRMT1 (Q99873 whole entry): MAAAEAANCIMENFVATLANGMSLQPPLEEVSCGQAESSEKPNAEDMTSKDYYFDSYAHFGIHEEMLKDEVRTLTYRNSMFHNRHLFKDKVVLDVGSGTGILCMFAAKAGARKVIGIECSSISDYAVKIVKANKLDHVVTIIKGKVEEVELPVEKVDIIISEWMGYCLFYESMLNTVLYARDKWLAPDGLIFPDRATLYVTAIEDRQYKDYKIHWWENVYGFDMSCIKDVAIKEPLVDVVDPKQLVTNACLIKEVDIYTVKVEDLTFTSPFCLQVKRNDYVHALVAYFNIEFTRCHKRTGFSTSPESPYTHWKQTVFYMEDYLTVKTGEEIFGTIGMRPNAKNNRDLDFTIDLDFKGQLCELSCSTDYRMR

- % Enzyme Activity (relative to DMSO controls) ([1]; monohydrochloride): 100.50% and 101.26%
- % Enzyme Activity (relative to DMSO controls) ([2]; monohydrochloride): 90.66% and 90.30%
- % Enzyme Activity (relative to DMSO controls) ([3]; monohydrochloride): 98.74% and 84.85%
- % Enzyme Activity (relative to DMSO controls) ([4]; monohydrochloride): 88.20% and 82.84%
Compound: CN(C)C(=N)N=C(N)N [Metformin, N, N-dimethyl-imidodicarbonimidic diamide, monohydrochloride]

Compound: CCc1ccc(CCOc2ccc(CC3SC(=O)NC3=O)cc2)nc1 (centres unmarked) [Pioglitazone, 5-[[4-[2-(5-ethyl-2-pyridinyl)ethoxy]phenyl]methyl]-2,4-thiazolidinedione]
- activation of PPARα [5]: low level activation
- % Enzyme Activity (relative to DMSO controls) [1]: 110.44% and 99.23%
- % Enzyme Activity (relative to DMSO controls) [2]: 93.46% and 102.78%
- % Enzyme Activity (relative to DMSO controls) [3]: 18.95% and 18.46%
- inhibition of PRMT5 [3]: mild inhibitor
- % Enzyme Activity (relative to DMSO controls) [4]: 43.68% and 45.13%

- inhibition of PRMT5 [3]: no effect
Compound: CN(CCOc1ccc(CC2SC(=O)NC2=O)cc1)c1ccccn1 (centres unmarked) [Rosiglitazone, 5-[[4-[2-(methyl-2-pyridinylamino)ethoxy]phenyl]methyl]-2,4-thiazolidinedione]

Compound: Nc1ncnc2c1ncn2[C@@H]1O[C@H](CSCC[C@H](N)C(=O)O)[C@@H](O)[C@H]1O [SAH, S-(5′-Adenosyl)-L-homocysteine]
- IC50 [2]: 623 nM
- % Activity ([4]; Conc. 1.00E−04 M): 5.40%
- Raw data ([4]; Conc. 1.00E−04 M): 23637
- % Activity ([4]; Conc. 1.11E−05 M): 23.32%
- Raw data ([4]; Conc. 1.11E−05 M): 102087
- % Activity ([4]; Conc. 1.23E−06 M): 61.44%
- Raw data ([4]; Conc. 1.23E−06 M): 268933
- % Activity ([4]; Conc. 1.37E−07 M): 87.83%
- Raw data ([4]; Conc. 1.37E−07 M): 384445
- % Activity ([4]; Conc. 1.52E−08 M): 90.12%
- Raw data ([4]; Conc. 1.52E−08 M): 394475
- % Activity ([4]; Conc. 3.33E−05 M): 11.73%
- Raw data ([4]; Conc. 3.33E−05 M): 51347
- % Activity ([4]; Conc. 3.70E−06 M): 42.02%
- Raw data ([4]; Conc. 3.70E−06 M): 183946
- % Activity ([4]; Conc. 4.12E−07 M): 72.99%
- Raw data ([4]; Conc. 4.12E−07 M): 319517
- % Activity ([4]; Conc. 4.57E−08 M): 96.88%
- Raw data ([4]; Conc. 4.57E−08 M): 424069
- % Activity ([4]; Conc. 5.08E−09 M): 91.72%
- Raw data ([4]; Conc. 5.08E−09 M): 401476
- HILLSLOPE ([4]; Table 4, PRMT5/MEP50 dose-response curve fit): −0.78

- % Enzyme Activity (relative to DMSO controls) [1]: 100.02% and 92.67%
- % Enzyme Activity (relative to DMSO controls) [2]: 70.12% and 73.79%
- % Enzyme Activity (relative to DMSO controls) [3]: 84.41% and 87.02%
- % Enzyme Activity (relative to DMSO controls) [4]: 90.97% and 82.32%
Compound: Cc1onc(-c2ccccc2Cl)c1C(=O)N(C)c1ccc(Cl)cc1 [TGR5 agonist, 3-(2-chlorophenyl)-N-(4-chlorophenyl)-N,5-dimethyl-4-isoxazolecarboxamide]
- pEC50, activator of TGR5 [6]: 6.8-7.5
